The record followed here is US20090149417A1, “Methods and compositions for the treatment of cancer using benzopyrone-type PARP inhibitors” (priority 2007, published 2009).

What all share (type): cell-based, human
Assay [1] concerns Colo375FG metastatic pancreatic adenocarcinoma cells. The assay is described as follows: TUNEL apoptosis assay (flow cytometry). As for the experimental part:
Cells are labeled for apoptosis with the “In Situ Cell Death Detection Kit, Fluorescein” (Roche Diagnostics Corporation, Roche Applied Science, Indianapolis, Ind.). Briefly, fixed cells are centrifuged and washed once in phosphate-buffered saline (PBS) containing 1% bovine serum albumin (BSA), then resuspended in 2 ml permeabilization buffer (0.1% Triton X-100 and 0.1% sodium citrate in PBS) for 25 min at room temperature and washed twice in 0.2 ml PBS/1% BSA. The cells are resuspended in 50 μl TUNEL reaction mixture (TdT enzyme and labeling solution) and incubated for 60 min at 37° C. in a humidified dark atmosphere in an incubator. The labeled cells are washed once in PBS/1% BSA, then resuspended in 0.5 ml ice-cold PBS containing 1 μg/ml 4′,6-diamidino-2-phenylindole (DAPI) for at least 30 min. All cell samples are analyzed with a BD LSR II (BD Biosciences, San Jose, Calif.).
The cells are labeled for apoptosis with the “In Situ Cell Death Detection Kit, Fluorescein” (Roche Diagnostics Corporation, Roche Applied Science, Indianapolis, Ind.). Briefly, fixed cells are centrifuged and washed once in phosphate-buffered saline (PBS) containing 1% bovine serum albumin (BSA), then resuspended in 2 ml permeabilization buffer (0.1% Triton X-100 and 0.1% sodium citrate in PBS) for 25 minutes at room temperature and washed twice in 0.2 ml PBS/1% BSA. The cells are resuspended in 50 μl TUNEL reaction mixture (TdT enzyme and labeling solution) and incubated for 60 min at 37° C. in a humidified dark atmosphere in an incubator. The labeled cells are washed once in PBS/1% BSA, then resuspended in 0.5 ml ice-cold PBS containing 1 μg/ml 4,6-diamidino-2-phenylindole (DAPI) for at least 30 min. All cell samples are analyzed with a BD LSR II (BD Biosciences, San Jose, Calif.).
In general terms: A flow cytometer gives signals particle by particle.

Assay [2] shares this test system. The assay is described as follows: Bromodeoxyuridine (BrdU) labeling assay (flow cytometry). Conditions: Compound IIIc 12.5 mM; one value printed beside OxaliPt 0 10 20 mM, OxaliPt level not assignable. As for the experimental part:
50 μl of BrdU (Sigma Chemical Co., St. Louis, Mo.) stock solution (1 mM) is added to give 10 μM BrdU final concentration. The cells are incubated for 30 min at 37° C. and fixed in ice-cold 70% ethanol and stored in a cold room (4° C.) overnight. Fixed cells are centrifuged and washed once in 2 ml PBS, then resuspended in 0.7 ml of denaturation solution (0.2 mg/ml pepsin in 2 N HCl) for 15 min at 37° C. in the dark and suspended with 1.04 ml 1M Tris buffer (Trizma base, Sigma Chemical Co.) to terminate the hydrolysis and washed in 2 ml PBS.
(§1) Cells are resuspended in 100-μl anti-BrdU antibody (DakoCytomation, Carpinteria, Calif.) with 1:100 dilution in TBFP permeable buffer (0.5% Tween-20, 1% bovine serum albumin and 1% fetal bovine serum in PBS) and incubated for 25 min at room temperature in the dark and washed in 2 ml PBS. The primary antibody-labeled cells are resuspended in 100 μl Alexa Fluor F(ab′)2 fragment of goat anti-mouse IgG (H+L) (2 mg/mL) (Molecular Probes, Eugene, Oreg.) with 1:200 dilution in TBFP permeable buffer and incubated for 25 min at room temperature in the dark and washed in 2 ml PBS, then resuspended in 0.5 ml ice-cold PBS containing 1 μg/ml 4′,6-diamidino-2-phenylindole (DAPI) for at least 30 min. All cell samples are analyzed with a BD LSR II (BD Biosciences, San Jose, Calif.).
as §1, with “50 μl of BrdU (Sigma Chemical Co., St. Louis, Mo.) stock solution (1 mM) is added to give 10 μM BrdU final concentration. The cells are incubated for 30 min at 37 °C and fixed in ice-cold 70% ethanol and stored in a cold room (4 °C) overnight. Fixed cells are centrifuged and washed once in 2 ml PBS, then resuspended in 0.7 ml of denaturation solution (0.2 mg/ml pepsin in 2 N HCl) for 15 min at 37° C. in the dark and suspended with 1.04 ml 1M Tris buffer (Trizma base, Sigma Chemical Co.) and washed in 2 ml PBS. Then cells” for “Cells”

For assay [3] the test system is unchanged. Kind of assay: Live cell number (Coulter counter, methylene blue, PI exclusion). As for the experimental part:
Colo375FG metastatic pancreatic adenocarcinoma cells are cultured in Dulbecco Modified Eagle Medium with 10% fetal bovine serum. Cells are plated at 10^5 per P100 or at 10^4 per P60 (for assays requiring up to 3 days of culture), in the presence of different concentrations of BiPar compounds and other agents, or DMSO control. Following treatment, the number of attached cells is measured using Coulter counter, and by staining with 1% methylene blue. Methylene blue is dissolved in 50%-50% mixture of Methanol and water. Cells are plated in 24- or 96-well plates and treated with compounds as indicated, then media are aspirated, cells are washed with PBS, fixed in methanol for 5-10 min, washed and the plates are allowed to dry completely. Methylene blue solution is added to wells and plates are incubated for 5 min. Staining solution is removed and plates are washed with dH2O. After plates are completely dry, a small amount of 1N HCl is added to each well to extract the methylene blue. The OD readout at 600 nm and a calibration curve are used to determine cell number.
IIIg (6-nitro-5-iodo-benzopyrone) is dissolved directly from dry powder to 10 mM stock solution in DMSO for each separate experiment, and then the entire volume of the stock solution is used to prepare working concentrations in cell culture medium to avoid any possibility of precipitation and the corresponding loss of compound. Control experiments are carried out with the matching volume/concentration of the vehicle (DMSO).
After the addition of drugs and incubation, cells are trypsinized and aliquots of the samples are taken for counting and PI (Propidium Iodide) exclusion assay. One part of the cells is centrifuged and resuspended in 0.5 ml ice-cold PBS containing 5 μg/ml of PI. The other part of the cells is fixed in ice-cold 70% ethanol and stored in a freezer overnight. For cell cycle analysis, cells are stained with propidium iodide (PI) by standard procedures. Cellular DNA content is determined by flow cytometry using BD LSRII FACS, and the percentages of cells in G1, S or G2/M are determined using ModFit software.
Colo375FG metastatic pancreatic adenocarcinoma cells are obtained from ATCC and cultured in Dulbecco Modified Eagle Medium with 10% fetal bovine serum. Cells are plated at 10^5 cells per P100 cell culture dish or at 10^4 cells per P60 cell culture dish in the presence of different concentrations compounds or DMSO control. Following treatment, the number of attached cells is measured using Coulter counter, and by staining with 1% methylene blue. Methylene blue is dissolved in 50%-50% mixture of Methanol and water. Cells are plated in 24- or 96-well plates and treated as planned, media are aspirated, cells are washed with PBS, fixed in methanol for 5-10 min, methanol is aspirated and plates are allowed to dry completely. Methylene blue solution is added to wells and plates are incubated for 5 min. Staining solution is removed and plates are washed with dH2O until washes are no longer blue. After plates are completely dry, a small amount of 1N HCl is added to each well to extract the methylene blue. The OD readout at 600 nm and a calibration curve are used to determine cell number.
Compounds of the invention are dissolved directly from dry powder to 10 mM stock solution in DMSO for each separate experiment. Control experiments are carried out with the matching volume/concentration of the vehicle (DMSO). In these controls, the cells show no changes in their growth or cell cycle distribution.
After the addition of drugs and incubation, cells are trypsinized and aliquots of the samples are taken for counting and PI (Propidium Iodide) exclusion assay. One part of the cells is centrifuged and resuspended in 0.5 ml ice-cold PBS containing 5 ug/ml of PI. The other part of the cells is fixed in ice-cold 70% ethanol and stored in a freezer overnight. For cell cycle analysis, cells are stained with propidium iodide (PI) by standard procedures. […]

Where [4] appears, read: Compound IIIc 12.5 mM, OxaliPt 0 mM.
Setting [5] is: combination: Compound IIIc 12.5 mM + OxaliPt 10 mM.
The mark [6] stands for this setting: combination: Compound IIIc 12.5 mM + OxaliPt 20 mM.

With `O=c1ccc2c(CCCCN3CC=C(c4ccccc4)CC3)c([N+](=O)[O-])ccc2o1` [IIIc], the “Dead cells TUNEL (%)” value in assay [1] (setting [4]) came to 2.7%; in assay [1] (setting [5]) it was 16.1%; in assay [1] (setting [6]), 28.2%. For the same molecule, in assay [2], the “Cells in S-phase of cell cycle (% BrdU+)” value is given as 73.87%. For the same molecule, the figures for the “Live Cell (%)” value in assay [3] (setting [4]), in assay [3] (setting [5]) and in assay [3] (setting [6]) were 54%, 33% and 25%, respectively.
